pIC50: −log10 of the molar value. Square brackets hold non-standard residues; d marks the D form. Peptide text beside a SMILES is read from it.
Tests used:
[1] = target: Programmed cell death protein 1/Programmed cell death 1 ligand 1 (Homo sapiens, UniProt Q9NZQ7); assay: Inhibition of PD1-Tag2/PD-L1-Tag1 (unknown origin) protein-protein interaction preincubated for 15 mins followed by addition of anti-Tag1-Eu3+ and anti-Tag2-XL665 measured after 3 hrs by HTRF assay; assay type: protein-complex assay
Chain of Programmed cell death protein 1/Programmed cell death 1 ligand 1 (Q15116 whole entry): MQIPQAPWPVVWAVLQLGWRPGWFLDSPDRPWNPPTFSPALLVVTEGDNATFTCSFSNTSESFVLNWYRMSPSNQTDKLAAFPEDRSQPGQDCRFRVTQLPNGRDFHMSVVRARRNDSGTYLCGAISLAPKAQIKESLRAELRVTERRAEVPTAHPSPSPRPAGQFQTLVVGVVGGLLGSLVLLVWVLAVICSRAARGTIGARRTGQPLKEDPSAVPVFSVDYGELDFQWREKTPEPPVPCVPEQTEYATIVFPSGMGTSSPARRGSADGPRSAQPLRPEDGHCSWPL
Chain of Programmed cell death protein 1/Programmed cell death 1 ligand 1 (Q9NZQ7 whole entry): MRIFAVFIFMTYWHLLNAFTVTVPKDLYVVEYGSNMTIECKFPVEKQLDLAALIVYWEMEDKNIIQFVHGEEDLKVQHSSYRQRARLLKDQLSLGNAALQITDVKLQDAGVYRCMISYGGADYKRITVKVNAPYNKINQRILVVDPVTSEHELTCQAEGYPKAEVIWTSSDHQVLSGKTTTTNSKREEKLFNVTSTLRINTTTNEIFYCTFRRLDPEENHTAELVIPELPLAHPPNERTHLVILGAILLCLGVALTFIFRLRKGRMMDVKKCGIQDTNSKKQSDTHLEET

[2] = target: Programmed cell death protein 1/Programmed cell death 1 ligand 1 (Homo sapiens) (UniProt Q15116+Q9NZQ7); assay: Inhibition of PD1-Tag2/PD-L1-Tag1 (unknown origin) protein-protein interaction at 20 uM preincubated for 15 mins followed by addition of anti-Tag1-Eu3+ and anti-Tag2-XL665 measured after 3 hrs by HTRF assay relative to control; assay type: protein-complex assay; settings: time 195.0 min

Question: With `CC(C)C[C@@H]1NC(=O)[C@H](CC(=O)O)NC(=O)[C@H]([C@@H](C)O)NC(=O)[C@@H]2CCCN2C(=O)[C@@H](Cc2ccccc2)NC(=O)[C@H](CC(C)C)NC(=O)[C@H](CCCNC(=N)N)NC(=O)[C@H](C(C)C)NC(=O)[C@@H]2CCCN2C(=O)[C@@H](Cc2ccccc2)NC1=O` as the compound, how does the pIC50 [1] read?
Answer: The pIC50 was 5.20.

Question: What about the inhibition [2] of the same compound?
Answer: The inhibition was 72.4%.

Question: How did the pIC50 [1] turn out when `CC(C)C[C@@H]1NC(=O)[C@H](CCCNC(=N)N)NC(=O)[C@H](C(C)C)NC(=O)[C@@H]2CCCN2C(=O)[C@@H](Cc2ccccc2)NC(=O)[C@H](C)NC(=O)[C@H](CC(=O)O)NC(=O)[C@H](C)NC(=O)[C@@H]2CCCN2C(=O)[C@@H](Cc2ccccc2)NC1=O` was run?
Answer: The pIC50 was 4.56.

Question: What about the inhibition [2] of the same compound?
Answer: Its inhibition is 51.9%.

Question: With `CC(NCCCC[C@@H]1NC(=O)[C@@H](Cc2ccccc2)NC(=O)[C@H](CC(C)C)NC(=O)[C@H](CC(=O)O)NC(=O)[C@H]([C@@H](C)O)NC(=O)[C@@H]2CCCN2C(=O)[C@@H](Cc2c[nH]c3ccccc23)NC(=O)[C@H](CC(C)C)NC(=O)[C@H](CCCNC(=N)N)NC(=O)[C@H](C(C)C)N(C)C1=O)=C1C(=O)CC(C)(C)CC1=O` as the compound, how does the inhibition [2] read?
Answer: The inhibition was 29.1%.

Question: How did the inhibition [2] turn out when `CC(NCCCC[C@@H]1NC(=O)[C@@H](Cc2ccccc2)NC(=O)[C@H](CC(C)C)NC(=O)[C@H](CC(=O)O)NC(=O)[C@H]([C@@H](C)O)N(C)C(=O)[C@@H]2CCCN2C(=O)[C@@H](Cc2c[nH]c3ccccc23)NC(=O)[C@H](CC(C)C)NC(=O)[C@H](CCCNC(=N)N)NC(=O)[C@H](C(C)C)NC1=O)=C1C(=O)CC(C)(C)CC1=O` was run?
Answer: Its inhibition is 32.3%.

Question: How did the inhibition [2] turn out when `CC(C)C[C@@H]1NC(=O)[C@H](CCCNC(=N)N)NC(=O)[C@H](CC(=O)O)NC(=O)[C@H](C(C)C)NC(=O)[C@@H]2CCCN2C(=O)[C@@H](Cc2ccccc2)NC(=O)[C@H](CC(C)C)NC(=O)[C@H]([C@@H](C)O)NC(=O)[C@@H]2CCCN2C(=O)[C@@H](Cc2ccccc2)NC1=O` (cyclo(DRL[dF]PTL[dF]PV)) was run?
Answer: The inhibition was -4.8%.

Question: With `CC(NCCCC[C@@H]1NC(=O)[C@@H](Cc2ccccc2)NC(=O)[C@H](CC(C)C)N(C)C(=O)[C@H](CC(=O)O)NC(=O)[C@H]([C@@H](C)O)NC(=O)[C@@H]2CCCN2C(=O)[C@@H](Cc2c[nH]c3ccccc23)NC(=O)[C@H](CC(C)C)NC(=O)[C@H](CCCNC(=N)N)NC(=O)[C@H](C(C)C)NC1=O)=C1C(=O)CC(C)(C)CC1=O` as the compound, how does the inhibition [2] read?
Answer: Its inhibition is 19.5%.

From ChEMBL document CHEMBL4665770, “Design and Discovery of Natural Cyclopeptide Skeleton Based Programmed Death Ligand 1 Inhibitor as Immune Modulator for Cancer Therapy” (J Med Chem, 2020)
